Counter-ions that a name gives are not always drawn.
Experiments:
Test in all cases: normalized area under the dose-response curve (viability relative to DMSO control) (fraction); higher = less sensitive (more viable cells)
Conditions in all cases: exposure time not given
AMO1 (cancer type: MM) = system: AMO1 (cancer type: MM)
Method: (§1)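 25 myeloma and 15 non-Hodgkin lymphoma cell lines were exposed to each of 76 drugs as 7-point log dilutions (0.01 nM–10 µM) in duplicate. Viability was read with CellTiter-Glo and normalised to DMSO (0.1%) and staurosporine (10 µM) plate controls. Normalised AUC was calculated by the trapezoidal method relative to the negative control.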

EJM (cancer type: MM) = system: EJM (cancer type: MM)
Method: as §1

FR4 (cancer type: MM) = system: FR4 (cancer type: MM)
Method: as §1

[1] = system: Granta-519 (cancer type: Mantle)
Method: as §1

[2] = system: HuT 78 (cancer type: TCL)
Method: as §1

JJN3 (cancer type: MM) = system: JJN3 (cancer type: MM)
Method: as §1

[3] = system: JVM2 (cancer type: Mantle)
Method: as §1

[4] = system: JeKo-1 (cancer type: Mantle)
Method: as §1

KMS11 (cancer type: MM) = system: KMS11 (cancer type: MM)
Method: as §1

[5] = system: KMS12PE (cancer type: MM)
Method: as §1

KMS18 (cancer type: MM) = system: KMS18 (cancer type: MM)
Method: as §1

KMS26 (cancer type: MM) = system: KMS26 (cancer type: MM)
Method: as §1

[6] = system: KMS28BM (cancer type: MM)
Method: as §1

[7] = system: KMS28PE (cancer type: MM)
Method: as §1

KMS34 (cancer type: MM) = system: KMS34 (cancer type: MM)
Method: as §1

[8] = system: Karpas-299 (cancer type: TCL)
Method: as §1

L363 (cancer type: MM) = system: L363 (cancer type: MM)
Method: as §1

LP1 (cancer type: MM) = system: LP1 (cancer type: MM)
Method: as §1

MM1.R (cancer type: MM) = system: MM1.R (cancer type: MM)
Method: as §1

MM1.S (cancer type: MM) = system: MM1.S (cancer type: MM)
Method: as §1

[9] = system: Mino (cancer type: Mantle)
Method: as §1

My-La (cancer type: TCL) = system: My-La (cancer type: TCL)
Method: as §1

[10] = system: NCI-H929 (cancer type: MM)
Method: as §1

[11] = system: OCI-LY1 (cancer type: DLBCL)
Method: as §1

[12] = system: OCI-LY19 (cancer type: DLBCL)
Method: as §1

[13] = system: OCI-LY3 (cancer type: DLBCL)
Method: as §1

[14] = system: OCI-MY5 (cancer type: MM)
Method: as §1

[15] = system: OCI-MY5/CRBN (cancer type: MM)
Method: as §1

[16] = system: OCI-MY5/Vec (cancer type: MM)
Method: as §1

[17] = system: OCI-MY7 (cancer type: MM)
Method: as §1

OPM2 (cancer type: MM) = system: OPM2 (cancer type: MM)
Method: as §1

[18] = system: RPMI 8226 (cancer type: MM)
Method: as §1

SKMM2 (cancer type: MM) = system: SKMM2 (cancer type: MM)
Method: as §1

[19] = system: SR-786 (cancer type: TCL)
Method: as §1

[20] = system: SU-DHL1 (cancer type: TCL)
Method: as §1

[21] = system: SU-DHL2 (cancer type: DLBCL)
Method: as §1

[22] = system: SU-DHL6 (cancer type: DLBCL)
Method: as §1

Se-Ax (cancer type: TCL) = system: Se-Ax (cancer type: TCL)
Method: as §1

U266 (cancer type: MM) = system: U266 (cancer type: MM)
Method: as §1

XG2 (cancer type: MM) = system: XG2 (cancer type: MM)
Method: as §1

Structure (SMILES)	normalized area under the dose-response curve (AMO1 (cancer type: MM))	normalized area under the dose-response curve (EJM (cancer type: MM))	normalized area under the dose-response curve (FR4 (cancer type: MM))	normalized area under the dose-response curve [1]	normalized area under the dose-response curve [2]	normalized area under the dose-response curve (JJN3 (cancer type: MM))	normalized area under the dose-response curve [3]	normalized area under the dose-response curve [4]	normalized area under the dose-response curve (KMS11 (cancer type: MM))	normalized area under the dose-response curve [5]	normalized area under the dose-response curve (KMS18 (cancer type: MM))	normalized area under the dose-response curve (KMS26 (cancer type: MM))	normalized area under the dose-response curve [6]	normalized area under the dose-response curve [7]	normalized area under the dose-response curve (KMS34 (cancer type: MM))	normalized area under the dose-response curve [8]	normalized area under the dose-response curve (L363 (cancer type: MM))	normalized area under the dose-response curve (LP1 (cancer type: MM))	normalized area under the dose-response curve (MM1.R (cancer type: MM))	normalized area under the dose-response curve (MM1.S (cancer type: MM))	normalized area under the dose-response curve [9]	normalized area under the dose-response curve (My-La (cancer type: TCL))	normalized area under the dose-response curve [10]	normalized area under the dose-response curve [11]	normalized area under the dose-response curve [12]	normalized area under the dose-response curve [13]	normalized area under the dose-response curve [14]	normalized area under the dose-response curve [15]	normalized area under the dose-response curve [16]	normalized area under the dose-response curve [17]	normalized area under the dose-response curve (OPM2 (cancer type: MM))	normalized area under the dose-response curve [18]	normalized area under the dose-response curve (SKMM2 (cancer type: MM))	normalized area under the dose-response curve [19]	normalized area under the dose-response curve [20]	normalized area under the dose-response curve [21]	normalized area under the dose-response curve [22]	normalized area under the dose-response curve (Se-Ax (cancer type: TCL))	normalized area under the dose-response curve (U266 (cancer type: MM))	normalized area under the dose-response curve (XG2 (cancer type: MM))
CC(C)(C)c1nc(-c2cccc(NS(=O)(=O)c3c(F)cccc3F)c2F)c(-c2ccnc(N)n2)s1 [Dabrafenib mesylate]	0.643	0.775	0.939	0.898	0.812	0.804	0.587	0.858	0.831	0.75	0.735	0.972	0.979	0.85	0.84	0.752	0.787	0.836	0.84	0.9	0.775	0.908	0.78	0.984	0.861	0.89	0.733	0.906	0.858	0.81	0.829	0.851	0.827	0.851	0.833	0.889	0.882	0.775	0.754	0.932
Cc1nc(Nc2ncc(C(=O)Nc3c(C)cccc3Cl)s2)cc(N2CCN(CCO)CC2)n1 [Dasatinib]	0.72	0.702	0.816	0.783	0.768	0.581	0.611	0.778	0.686	0.48	0.765	0.868	0.994	0.731	0.612	0.875	0.813	0.712	0.76	0.75	0.745	0.841	0.74	0.66	0.718	0.727	0.701	0.824	0.79	0.82	0.802	0.739	0.906	0.843	0.862	0.894	0.754	0.82	0.616	0.746
Nc1ncn([C@H]2C[C@H](O)[C@@H](CO)O2)c(=O)n1 [Decitabine]	0.836	0.916	0.937	0.978	0.958	0.912	0.879	0.644	0.871	0.9	0.97	0.897	0.955	0.778	0.702	0.912	0.82	0.88	0.85	0.89	0.818	0.957	0.89	0.912	0.84	0.883	0.773	0.888	0.93	0.91	0.835	0.914	0.933	0.854	0.962	0.94	0.844	0.832	0.804	0.896
C[C@@H]1C[C@H]2[C@@H]3CCC4=CC(=O)C=C[C@]4(C)[C@@]3(F)[C@@H](O)C[C@]2(C)[C@@]1(O)C(=O)CO [Dexamethasone]	0.762	0.777	0.933	0.925	0.873	0.983	0.799	0.875	0.805	0.96	0.788	0.773	0.904	0.735	0.487	0.852	0.756	0.613	0.94	0.66	0.86	0.883	0.79	0.924	0.947	0.963	0.725	0.928	0.814	0.76	0.826	0.777	0.648	0.972	0.907	0.686	0.8	0.759	0.818	0.863
CCc1cnn2c(NCc3ccc[n+]([O-])c3)cc(N3CCCC[C@H]3CCO)nc12 [Dinaciclib]	0.03	0.0534	0.0504	0.625	0.0209	0.0469	0.259	0.0614	0.084	0.04	0.0366	0.0286	0.0793	0.169	0.124	0.0458	0.0142	0.0551	0.03	0.03	0.392	0.582	0.04	0.0794	0.414	0.148	0.0272	0.0017	0.0029	0.02	0.0465	0.0467	0.628	0.0218	0.0533	0.393	0.667	0.31	0.0357	0.0928
Cc1ccc(-n2nc(C(C)(C)C)cc2NC(=O)Nc2ccc(OCCN3CCOCC3)c3ccccc23)cc1 [Doramapimod]	0.842	0.872	0.932	0.938	0.812	0.726	0.687	1.04	0.782	0.89	0.926	0.787	0.887	0.842	0.737	0.916	0.801	0.87	0.88	0.8	0.97	0.907	0.87	0.999	0.645	0.9	0.693	0.961	0.916	0.89	0.834	0.917	0.969	0.919	0.737	0.901	0.858	0.736	0.634	0.806
CC(C)(O)CNc1nc(Nc2ccnc(C(F)(F)F)c2)nc(-c2cccc(C(F)(F)F)n2)n1 [Enasidenib (Agios ag-221)]	0.864	0.865	0.944	0.975	0.86	0.822	0.787	0.881	0.95	0.9	0.772	0.887	0.894	0.819	0.853	0.9	0.802	0.772	0.81	0.8	0.877	0.947	0.92	0.957	0.972	1	0.723	0.903	0.847	0.81	0.749	0.92	0.905	0.908	0.888	0.918	0.92	0.837	0.914	0.899
C#Cc1cccc(Nc2ncnc3cc(OCCOC)c(OCCOC)cc23)c1 [Erlotinib hydrochloride]	0.897	0.91	0.877	0.938	0.756	0.878	0.665	0.886	0.85	0.8	0.84	0.928	0.847	0.871	0.805	0.907	0.814	0.869	0.84	0.86	0.95	0.972	0.88	0.888	0.864	0.897	0.796	0.878	0.861	0.84	0.86	0.903	0.922	0.962	0.87	0.839	0.905	0.84	0.946	0.888

Source: the supplement of paper PMC7214452
